Values quoted from earlier work, collected in patent US20100137247A1, “Anti-inflammatory compositions and methods” (Searete LLC, a limited liability corporation of the State …, priority 2008, published 2010).
Values belong to the compound of their own block, whether it stands above or below them.

Key:
[1] = 400 mg infused over one hour, single agent
lethal septic shock = settings: mice
[2] = tested on: proteasomal activity in cultured breast cancer cells; settings: disulfiram bound to copper

Structure (SMILES): CCN(CC)CCCC(C)Nc1ccnc2cc(Cl)ccc12.O=P(O)(O)O.O=P(O)(O)O (stereo not shown) [Chloroquine phosphate, 7-chloro-4-[[4-(diethylamino)-1-methylbutyl]amino]quinoline phosphate (1:2)]
tolerability of infusion [1]: without complication

inhibition of CpG-induced Src family kinase activation or its dependent cellular responses (Src family kinase): does not inhibit
Structure (SMILES): CCN(CC)CCCC(C)Nc1ccnc2cc(Cl)ccc12 (stereo not shown) [Chloroquine]

Structure (SMILES): Cl.Cl.Nc1ccccc1Oc1ccc2c(N)nsc2c1 [Example M62812, 3-amino-6-(2-aminophenoxy)-1,2-benzisothiazole dihydrochloride]
prevention of lethal septic shock (lethal septic shock): prevents lethal septic shock

Structure (SMILES): CCN(CC)C(=S)SSC(=S)N(CC)CC [Disulfiram, 1-(diethylthiocarbamoyldisulfanyl)-N,N-diethyl-methanethioamide]
proteasomal activity [2]: inhibits proteasomal activity
